Reference: PubChem BioAssay AID1963832 (Molecular Pharmacology Branch, DTP, NCI, 2024)

Test system: 885724-159-R-J1-PDC complex spheroid viability
Assay: Anticancer human tumor 885724-159-R-J1-PDC patient-derived pancreatic adenocarcinoma cell line growth inhibition [POLQ]
Details: for IC50: curve of first compound; for viability, T/C: stronger effect = lower value
How it was run: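 Complex spheroid viability model combining PDC tumour cells with endothelial (HUVEC) and MSC stromal cells. Novobiocin, ART-558 or RP6685 were tested singly and in combination with standard and investigational anticancer drugs. Each was titrated in half-log steps from near clinical Cmax, or from 10 microM where Cmax was unknown.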

[1] = second compound 0.0316 µM, first compound 0.00316 µM
[2] = second compound 0.0316 µM, first compound 0.01 µM
[3] = second compound 0.0316 µM, first compound 0.0316 µM
[4] = second compound 0.0316 µM, first compound 0.1 µM
[5] = second compound 0.0316 µM, first compound 0.316 µM
[6] = second compound 0.0316 µM, first compound 1 µM
[7] = second compound 0.1 µM, first compound 0.00316 µM
[8] = second compound 0.1 µM, first compound 0.01 µM
[9] = second compound 0.1 µM, first compound 0.0316 µM
[10] = second compound 0.1 µM, first compound 0.1 µM
[11] = second compound 0.1 µM, first compound 0.316 µM
[12] = second compound 0.1 µM, first compound 1 µM
[13] = second compound 0.316 µM, first compound 0.00316 µM
[14] = second compound 0.316 µM, first compound 0.01 µM
[15] = second compound 0.316 µM, first compound 0.0316 µM
[16] = second compound 0.316 µM, first compound 0.1 µM
[17] = second compound 0.316 µM, first compound 0.316 µM
[18] = second compound 0.316 µM, first compound 1 µM
[19] = second compound 1 µM, first compound 0.00316 µM
[20] = second compound 1 µM, first compound 0.01 µM
[21] = second compound 1 µM, first compound 0.0316 µM
[22] = second compound 1 µM, first compound 0.1 µM
[23] = second compound 1 µM, first compound 0.316 µM
[24] = second compound 1 µM, first compound 1 µM
[25] = second compound 3.16 µM, first compound 0.00316 µM
[26] = second compound 3.16 µM, first compound 0.01 µM
[27] = second compound 3.16 µM, first compound 0.0316 µM
[28] = second compound 3.16 µM, first compound 0.1 µM
[29] = second compound 3.16 µM, first compound 0.316 µM
[30] = second compound 3.16 µM, first compound 1 µM
[31] = second compound 10 µM, first compound 0.00316 µM
[32] = second compound 10 µM, first compound 0.01 µM
[33] = second compound 10 µM, first compound 0.0316 µM
[34] = second compound 10 µM, first compound 0.1 µM
[35] = second compound 10 µM, first compound 0.316 µM
[36] = second compound 10 µM, first compound 1 µM
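Also: spheroids exposed to compounds for 7 days.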

For `C=CCn1c(=O)c2cnc(Nc3ccc(N4CCN(C)CC4)cc3)nc2n1-c1cccc(C(C)(C)O)n1` + COC1C(OC(N)=O)C(O)C(Oc2ccc3c(O)c(NC(=O)c4ccc(O)c(CC=C(C)C)c4)c(=O)oc3c2C)OC1(C)C, which IC50 (second compound 0.0316 µM) is on record?
Its IC50 is 296 nM.

What about the IC50 (second compound 0.1 µM) of the same molecule?
Its IC50 is 532 nM.

What about the IC50 (second compound 0.316 µM) of the same molecule?
Its IC50 is 689 nM.

And the IC50 (second compound 1 µM)?
Its IC50 is 713 nM.

What about the IC50 (second compound 3.16 µM) of the same molecule?
Its IC50 is 697 nM.

And the IC50 (second compound 10 µM)?
The IC50 was 631 nM.

And the viability, T/C [1]?
The viability, T/C was 87.8%.

What about the viability, T/C [2] of the same molecule?
Its viability, T/C is 109%.

What about the viability, T/C [3] of the same molecule?
The viability, T/C was 90.9%.

What about the viability, T/C [4] of the same molecule?
Its viability, T/C is 85.4%.

And the viability, T/C [5]?
Its viability, T/C is 47.5%.

And the viability, T/C [6]?
The viability, T/C was 42.2%.

What about the viability, T/C [7] of the same molecule?
Its viability, T/C is 100%.

What about the viability, T/C [8] of the same molecule?
The viability, T/C was 99.7%.

And the viability, T/C [9]?
The viability, T/C was 96.5%.

And the viability, T/C [10]?
The viability, T/C was 86.4%.

And the viability, T/C [11]?
Its viability, T/C is 54.4%.

What about the viability, T/C [12] of the same molecule?
Its viability, T/C is 44.5%.

And the viability, T/C [13]?
The viability, T/C was 103%.

What about the viability, T/C [14] of the same molecule?
Its viability, T/C is 100%.

What about the viability, T/C [15] of the same molecule?
Its viability, T/C is 93.2%.

And the viability, T/C [16]?
The viability, T/C was 82.7%.

And the viability, T/C [17]?
The viability, T/C was 52.7%.

What about the viability, T/C [18] of the same molecule?
The viability, T/C was 49%.

What about the viability, T/C [19] of the same molecule?
Its viability, T/C is 110%.

And the viability, T/C [20]?
Its viability, T/C is 93.8%.

And the viability, T/C [21]?
Its viability, T/C is 89.7%.

What about the viability, T/C [22] of the same molecule?
The viability, T/C was 82.6%.

What about the viability, T/C [23] of the same molecule?
Its viability, T/C is 55.1%.

What about the viability, T/C [24] of the same molecule?
The viability, T/C was 46.9%.

And the viability, T/C [25]?
The viability, T/C was 100%.

And the viability, T/C [26]?
Its viability, T/C is 88.3%.

What about the viability, T/C [27] of the same molecule?
The viability, T/C was 90.1%.

What about the viability, T/C [28] of the same molecule?
The viability, T/C was 77.3%.

What about the viability, T/C [29] of the same molecule?
Its viability, T/C is 57.4%.

What about the viability, T/C [30] of the same molecule?
Its viability, T/C is 46.5%.

What about the viability, T/C [31] of the same molecule?
The viability, T/C was 101%.

What about the viability, T/C [32] of the same molecule?
Its viability, T/C is 90.2%.

And the viability, T/C [33]?
Its viability, T/C is 97.2%.

And the viability, T/C [34]?
Its viability, T/C is 74.3%.

What about the viability, T/C [35] of the same molecule?
Its viability, T/C is 58.6%.

And the viability, T/C [36]?
The viability, T/C was 44.8%.

Which results are given for `CCCS(=O)(=O)Nc1ccc(F)c(C(=O)c2c[nH]c3ncc(-c4ccc(Cl)cc4)cc23)c1F` + COC1C(OC(N)=O)C(O)C(Oc2ccc3c(O)c(NC(=O)c4ccc(O)c(CC=C(C)C)c4)c(=O)oc3c2C)OC1(C)C?
IC50 (second compound 0.0316 µM): > 10000 nM; IC50 (second compound 0.1 µM): > 10000 nM; IC50 (second compound 0.316 µM): > 10000 nM; IC50 (second compound 1 µM): > 10000 nM; IC50 (second compound 3.16 µM): > 10000 nM; IC50 (second compound 10 µM): > 10000 nM; viability, T/C [3]: 106%; viability, T/C [4]: 114%; viability, T/C [5]: 140%; viability, T/C [6]: 148%; viability, T/C (second compound 0.0316 µM, first compound 3.16 µM): 137%; viability, T/C (second compound 0.0316 µM, first compound 10 µM): 65.9%; viability, T/C [9]: 109%; viability, T/C [10]: 114%; viability, T/C [11]: 130%; viability, T/C [12]: 157%; viability, T/C (second compound 0.1 µM, first compound 3.16 µM): 143%; viability, T/C (second compound 0.1 µM, first compound 10 µM): 67.8%; viability, T/C [15]: 104%; viability, T/C [16]: 121%; viability, T/C [17]: 131%; viability, T/C [18]: 163%; viability, T/C (second compound 0.316 µM, first compound 3.16 µM): 137%; viability, T/C (second compound 0.316 µM, first compound 10 µM): 76.6%; viability, T/C [21]: 108%; viability, T/C [22]: 107%; viability, T/C [23]: 123%; viability, T/C [24]: 145%; viability, T/C (second compound 1 µM, first compound 3.16 µM): 139%; viability, T/C (second compound 1 µM, first compound 10 µM): 68.1%; viability, T/C [27]: 110%; viability, T/C [28]: 103%; viability, T/C [29]: 122%; viability, T/C [30]: 154%; viability, T/C (second compound 3.16 µM, first compound 3.16 µM): 151%; viability, T/C (second compound 3.16 µM, first compound 10 µM): 82.4%; viability, T/C [33]: 111%; viability, T/C [34]: 114%; viability, T/C [35]: 128%; viability, T/C [36]: 139%; viability, T/C (second compound 10 µM, first compound 3.16 µM): 152%; viability, T/C (second compound 10 µM, first compound 10 µM): 76.3%

Which results are given for `CC[C@@]1(O)C(=O)OCc2c1cc1n(c2=O)Cc2cc3c(CN(C)C)c(O)ccc3nc2-1` + COC1C(OC(N)=O)C(O)C(Oc2ccc3c(O)c(NC(=O)c4ccc(O)c(CC=C(C)C)c4)c(=O)oc3c2C)OC1(C)C?
IC50 (second compound 0.0316 µM): > 100 nM; IC50 (second compound 0.1 µM): 94.7 nM; IC50 (second compound 0.316 µM): > 100 nM; IC50 (second compound 1 µM): > 100 nM; IC50 (second compound 3.16 µM): > 100 nM; IC50 (second compound 10 µM): > 100 nM; viability, T/C (second compound 0.0316 µM, first compound 0.000316 µM): 102%; viability, T/C (second compound 0.0316 µM, first compound 0.001 µM): 101%; viability, T/C [1]: 84%; viability, T/C [2]: 98.1%; viability, T/C [3]: 76.2%; viability, T/C [4]: 51.3%; viability, T/C (second compound 0.1 µM, first compound 0.000316 µM): 111%; viability, T/C (second compound 0.1 µM, first compound 0.001 µM): 117%; viability, T/C [7]: 97.6%; viability, T/C [8]: 97%; viability, T/C [9]: 76.7%; viability, T/C [10]: 48.3%; viability, T/C (second compound 0.316 µM, first compound 0.000316 µM): 94.4%; viability, T/C (second compound 0.316 µM, first compound 0.001 µM): 101%; viability, T/C [13]: 94.4%; viability, T/C [14]: 87.2%; viability, T/C [15]: 73.2%; viability, T/C [16]: 54.4%; viability, T/C (second compound 1 µM, first compound 0.000316 µM): 104%; viability, T/C (second compound 1 µM, first compound 0.001 µM): 94.6%; viability, T/C [19]: 93.7%; viability, T/C [20]: 95.3%; viability, T/C [21]: 76.2%; viability, T/C [22]: 56.1%; viability, T/C (second compound 3.16 µM, first compound 0.000316 µM): 98.5%; viability, T/C (second compound 3.16 µM, first compound 0.001 µM): 104%; viability, T/C [25]: 97%; viability, T/C [26]: 84.3%; viability, T/C [27]: 77.3%; viability, T/C [28]: 55.1%; viability, T/C (second compound 10 µM, first compound 0.000316 µM): 109%; viability, T/C (second compound 10 µM, first compound 0.001 µM): 94.5%; viability, T/C [31]: 94.4%; viability, T/C [32]: 79.2%; viability, T/C [33]: 66.1%; viability, T/C [34]: 50.9%
